Laboratory results reported in ChEMBL document CHEMBL4418496, “Inhibitors of crl4 ubiquitin ligase and uses thereof” (2014).
pIC50: −log10 of the molar value. Activity calls are given as the source filed them. The rule behind the calls is not given here. Where a SMILES comes first, the peptide text is derived from it. The star is where a group is joined. Cbz = O=C(OCc1ccccc1)*

Key:
[1] = biological target: T1, Cullin-4A (Homo sapiens, UniProt Q13619); test: Inhibition of GST-tagged CUL4A/Rbxl ubiquitin ligase activity (unknown origin) assessed as reduction in reconstituted DDB1 ubiquitination in presence of ubiquitin, El, E2 and DDB1 incubated for 1 hr by Western blotting analysis
[2] = biological target: Cullin-4A (Mus musculus) (UniProt Q3TCH7); test: Inhibition of CUL4A in mouse MEF cells stably expressing FL FLAG-tagged DDB2 assessed as reduction in F-DDB2 degradation incubated for 2 hrs before irradiated with 10 J/m2 UV irradiation; assay type: cell-based
[3] = biological target: Cullin-4B (Homo sapiens) (UniProt Q13620); test: Inhibition of CUL4B in human MCF7 cells assessed as reduction in 3-methylcholanthrene-induced androgen receptor degradation at 50 uM; assay type: cell-based
[4] = biological target: T1, Cullin-4A; test: Inhibition of CUL4A in human HCT116 cells assessed as promotion of UV-damaged DNA repair by measuring enhancement of 6,4-photoproducts removal pre-incubated for 2 hrs before UV-irradiation by ELISA; assay type: cell-based
[5] = biological target: Cullin-4A (Mus musculus) (UniProt Q3TCH7); test: Inhibition of CUL4A in mouse MEF cells stably expressing FL FLAG-tagged DDB2 assessed as reduction in F-DDB2 degradation incubated for 2 hrs before irradiated with 10 J/m2 UV irradiation relative to control; assay type: cell-based
[6] = biological target: Cullin-1 (Homo sapiens) (UniProt Q13616); test: Inhibition of CUL1 in human U20S cells assessed as reduction in TNF-alpha-induced IkappaB-alpha degradation at 50 uM incubated for 2 hrs followed by TNFalpha stimulation for 15 mins by Western blotting analysis; assay type: cell-based
[7] = system: Proteasome; test: Inhibition of proteasome in mouse MEF cells stably expressing FL FLAG-tagged DDB2 assessed as reduction in F-DDB2 degradation incubated for 2 hrs before irradiated with 10 J/m2 UV irradiation

Sequence of Cullin-4A (Mus musculus) (Q3TCH7 whole entry): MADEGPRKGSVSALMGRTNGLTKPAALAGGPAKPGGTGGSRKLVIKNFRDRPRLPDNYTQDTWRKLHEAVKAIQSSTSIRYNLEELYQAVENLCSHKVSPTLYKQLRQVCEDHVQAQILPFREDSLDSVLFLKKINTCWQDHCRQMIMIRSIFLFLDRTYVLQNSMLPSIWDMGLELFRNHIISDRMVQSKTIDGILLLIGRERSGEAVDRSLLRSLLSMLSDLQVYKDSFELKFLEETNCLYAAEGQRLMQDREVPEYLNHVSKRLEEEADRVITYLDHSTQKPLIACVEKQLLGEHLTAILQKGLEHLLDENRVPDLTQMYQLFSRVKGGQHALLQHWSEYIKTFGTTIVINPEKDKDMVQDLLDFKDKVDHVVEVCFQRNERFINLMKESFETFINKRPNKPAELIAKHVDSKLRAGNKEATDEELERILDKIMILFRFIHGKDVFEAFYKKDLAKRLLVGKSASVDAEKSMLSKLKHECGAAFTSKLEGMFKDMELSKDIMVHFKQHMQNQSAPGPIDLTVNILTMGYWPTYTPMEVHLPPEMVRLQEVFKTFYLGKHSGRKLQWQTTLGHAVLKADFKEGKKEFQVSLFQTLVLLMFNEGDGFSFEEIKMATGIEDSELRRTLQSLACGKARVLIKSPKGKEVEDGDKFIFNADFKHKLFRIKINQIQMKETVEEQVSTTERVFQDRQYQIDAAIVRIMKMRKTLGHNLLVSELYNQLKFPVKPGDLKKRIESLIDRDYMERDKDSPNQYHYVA
T1 sequence (Q13619 whole entry): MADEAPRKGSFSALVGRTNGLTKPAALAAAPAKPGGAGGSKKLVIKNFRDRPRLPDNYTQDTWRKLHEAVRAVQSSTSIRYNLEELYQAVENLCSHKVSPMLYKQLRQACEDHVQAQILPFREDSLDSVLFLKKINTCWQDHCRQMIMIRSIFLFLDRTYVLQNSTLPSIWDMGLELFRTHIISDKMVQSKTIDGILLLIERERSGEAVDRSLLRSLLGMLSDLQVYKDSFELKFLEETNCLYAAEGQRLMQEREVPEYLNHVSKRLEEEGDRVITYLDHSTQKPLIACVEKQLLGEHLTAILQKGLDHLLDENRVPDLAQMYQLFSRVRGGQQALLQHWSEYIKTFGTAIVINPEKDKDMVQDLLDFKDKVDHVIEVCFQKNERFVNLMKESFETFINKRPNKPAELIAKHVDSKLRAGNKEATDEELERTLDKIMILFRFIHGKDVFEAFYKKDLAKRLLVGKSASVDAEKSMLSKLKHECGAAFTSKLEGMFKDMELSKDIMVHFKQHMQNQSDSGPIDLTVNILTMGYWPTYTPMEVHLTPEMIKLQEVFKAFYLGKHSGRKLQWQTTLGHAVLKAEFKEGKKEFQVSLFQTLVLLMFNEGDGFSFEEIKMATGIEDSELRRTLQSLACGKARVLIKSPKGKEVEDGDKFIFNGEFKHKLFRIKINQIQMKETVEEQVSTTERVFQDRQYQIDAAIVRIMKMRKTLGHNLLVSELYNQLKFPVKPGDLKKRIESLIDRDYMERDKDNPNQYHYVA
Sequence of Cullin-1 (Homo sapiens) (Q13616 whole entry): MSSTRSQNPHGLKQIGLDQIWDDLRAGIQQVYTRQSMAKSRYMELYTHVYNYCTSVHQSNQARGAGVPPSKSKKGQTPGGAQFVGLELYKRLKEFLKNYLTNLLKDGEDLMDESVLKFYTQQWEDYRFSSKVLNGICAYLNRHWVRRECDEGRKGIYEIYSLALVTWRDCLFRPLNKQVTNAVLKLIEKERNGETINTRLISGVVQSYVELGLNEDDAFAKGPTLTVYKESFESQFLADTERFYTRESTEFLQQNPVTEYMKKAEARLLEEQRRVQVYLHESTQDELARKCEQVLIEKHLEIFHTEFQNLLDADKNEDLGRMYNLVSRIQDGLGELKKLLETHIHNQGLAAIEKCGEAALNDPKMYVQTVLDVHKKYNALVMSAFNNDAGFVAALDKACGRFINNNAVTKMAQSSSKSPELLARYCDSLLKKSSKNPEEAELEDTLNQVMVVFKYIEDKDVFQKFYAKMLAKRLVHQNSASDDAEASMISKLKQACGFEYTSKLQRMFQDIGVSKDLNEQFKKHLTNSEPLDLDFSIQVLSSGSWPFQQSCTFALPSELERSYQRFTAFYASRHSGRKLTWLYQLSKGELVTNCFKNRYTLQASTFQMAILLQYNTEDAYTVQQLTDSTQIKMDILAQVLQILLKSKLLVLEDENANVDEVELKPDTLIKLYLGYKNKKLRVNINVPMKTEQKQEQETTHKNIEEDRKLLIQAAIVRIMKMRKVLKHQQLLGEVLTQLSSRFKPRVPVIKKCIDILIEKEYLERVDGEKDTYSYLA
Sequence of Cullin-4B (Homo sapiens) (Q13620 whole entry): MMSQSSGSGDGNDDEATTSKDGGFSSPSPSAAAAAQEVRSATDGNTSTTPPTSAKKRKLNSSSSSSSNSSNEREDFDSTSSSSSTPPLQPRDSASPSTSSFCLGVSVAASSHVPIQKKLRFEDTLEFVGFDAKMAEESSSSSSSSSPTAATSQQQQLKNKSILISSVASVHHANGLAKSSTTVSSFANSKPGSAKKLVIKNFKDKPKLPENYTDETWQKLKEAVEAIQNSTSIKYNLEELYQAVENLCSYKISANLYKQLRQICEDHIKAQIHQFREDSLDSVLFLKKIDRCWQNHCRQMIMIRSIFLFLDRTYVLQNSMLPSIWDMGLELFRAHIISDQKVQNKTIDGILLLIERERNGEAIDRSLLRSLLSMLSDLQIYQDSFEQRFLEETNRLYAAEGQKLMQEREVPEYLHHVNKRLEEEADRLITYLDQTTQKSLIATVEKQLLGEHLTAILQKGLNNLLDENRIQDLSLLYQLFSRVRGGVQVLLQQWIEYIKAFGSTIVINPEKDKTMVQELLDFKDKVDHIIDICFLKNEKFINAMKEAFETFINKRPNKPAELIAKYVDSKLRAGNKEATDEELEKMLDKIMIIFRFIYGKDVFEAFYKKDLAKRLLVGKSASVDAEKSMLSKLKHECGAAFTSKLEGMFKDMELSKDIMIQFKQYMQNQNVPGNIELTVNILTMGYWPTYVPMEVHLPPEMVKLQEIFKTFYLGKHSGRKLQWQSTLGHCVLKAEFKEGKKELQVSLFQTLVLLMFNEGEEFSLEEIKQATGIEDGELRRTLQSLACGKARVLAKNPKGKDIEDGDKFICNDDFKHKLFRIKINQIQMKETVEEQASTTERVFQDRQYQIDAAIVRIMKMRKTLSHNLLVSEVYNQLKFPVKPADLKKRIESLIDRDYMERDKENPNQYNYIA

Q: With `N#Cc1c(-c2ccco2)c2c([nH]c1=S)CCCC2` as the compound, how does the pIC50 [1] read?
A: The pIC50 was 6.26.

Q: With `CC(=O)CN1C(=O)C(=O)c2cc(Br)ccc21` as the compound, how does the “inhibition (active/inactive call)” value [2] read?
A: Its value is “Active”.

Q: Which “inhibition (active/inactive call)” value [2] does the source give for `CCOC(=O)Oc1c(Cl)cc2oc(=O)sc2c1Cl` here?
A: The value was “Active”.

Q: `CC(C)c1nnc(S)n1-c1ccc(Cl)c(Cl)c1` was tested. Which “inhibition (active/inactive call)” value [2] did it give?
A: The value was “Active”.

Q: And the inhibition [3]?
A: Its inhibition is “inactive”.

Q: What about the pIC50 [1] of the same compound?
A: The pIC50 was greater than 6.62.

Q: With `N#CC1=C(N)SC(N)=C(C#N)C1c1ccc(C(F)(F)F)cc1` as the compound, how does the pIC50 [1] read?
A: The pIC50 was less than 4.30.

Q: With `N#CC1=C(N)SC(N)=C(C#N)C1c1ccccc1F` as the compound, how does the inhibition [4] read?
A: The inhibition was “Active”.

Q: What about the “inhibition (active/inactive call)” value [2] of the same compound?
A: Its value is “Active”.

Q: What about the inhibition [5] of the same compound?
A: The inhibition was “Dose-dependent effect”.

Q: And the inhibition [3]?
A: The inhibition was “inactive”.

Q: What about the inhibition [6] of the same compound?
A: The inhibition was “inactive”.

Q: With `N#CC1=C(N)SC(N)=C(C#N)C1c1cc(Br)ccc1F` as the compound, how does the pIC50 [1] read?
A: The pIC50 was 3.16.

Q: `COc1ccc(-c2c3c([nH]c(=S)c2C#N)CCC3)cc1` was tested. Which pIC50 [1] did it give?
A: The pIC50 was 6.00.

Q: `Clc1ccc2nc(Cl)c3nnnn3c2c1` was tested. Which “inhibition (active/inactive call)” value [2] did it give?
A: Its value is “Active”.

Q: How did the pIC50 [1] turn out when `COC(=O)Oc1c(Br)c(C)c2oc(=O)sc2c1Br` was run?
A: The pIC50 was greater than 6.62.

Q: With `Sc1nnc(C2CC2)n1-c1ccc(Cl)c(Cl)c1` as the compound, how does the “inhibition (active/inactive call)” value [2] read?
A: Its value is “Active”.

Q: What about the inhibition [3] of the same compound?
A: Its inhibition is “inactive”.

Q: What about the pIC50 [1] of the same compound?
A: Its pIC50 is 3.15.

Q: `COC(=O)Oc1cc2oc(=O)sc2cc1Cl` was tested. Which “inhibition (active/inactive call)” value [2] did it give?
A: Its value is “Active”.

Q: `CNC(=O)Oc1c(Br)cc2sc(=O)oc2c1Br` was tested. Which pIC50 [1] did it give?
A: The pIC50 was greater than 6.62.

Q: `CC1(C)Cc2c(c(N3CCNCC3)[nH]c(=S)c2C#N)CO1` was tested. Which “inhibition (active/inactive call)” value [2] did it give?
A: Its value is “Active”.

Q: How did the inhibition [4] turn out when `N#Cc1c(S)nc2c(c1-c1ccco1)CCCC2` was run?
A: Its inhibition is “Active”.

Q: And the “inhibition (active/inactive call)” value [2]?
A: Its value is “Active”.

Q: And the inhibition [5]?
A: Its inhibition is “Dose-dependent effect”.

Q: What about the inhibition [3] of the same compound?
A: Its inhibition is “inactive”.

Q: And the inhibition [6]?
A: Its inhibition is “inactive”.

Q: For `N#CC1=C(N)SC(N)=C(C#N)C1c1cccs1`, which “inhibition (active/inactive call)” value [2] is on record?
A: The value was “Active”.

Q: And the inhibition [3]?
A: The inhibition was “inactive”.

Q: What about the inhibition [6] of the same compound?
A: The inhibition was “inactive”.

Q: `O=[N+]([O-])c1c(Cl)ncnc1N1CCCCC1CO` (stereo not drawn) was tested. Which “inhibition (active/inactive call)” value [2] did it give?
A: The value was “Active”.

Q: With `O=c1oc2c(Br)c(O)c(Br)cc2s1` as the compound, how does the “inhibition (active/inactive call)” value [2] read?
A: Its value is “Active”.

Q: And the inhibition [3]?
A: The inhibition was “inactive”.

Q: For `COc1ccc(-c2c3c([nH]c(=S)c2C#N)CCCC3)cc1`, which “inhibition (active/inactive call)” value [2] is on record?
A: Its value is “Active”.

Q: What about the inhibition [3] of the same compound?
A: Its inhibition is “inactive”.

Q: What about the inhibition [6] of the same compound?
A: The inhibition was “inactive”.

Q: How did the pIC50 [1] turn out when `N#Cc1c(-c2ccncc2)c2c([nH]c1=S)CCCC2` was run?
A: Its pIC50 is 5.57.

Q: How did the “inhibition (active/inactive call)” value [2] turn out when `CCOC(=O)Oc1cc2oc(=O)sc2cc1Br` was run?
A: Its value is “Active”.

Q: How did the “inhibition (active/inactive call)” value [2] turn out when `COC(=O)c1sc(=S)n(-c2ccc(F)cc2F)c1N` was run?
A: Its value is “Active”.

Q: How did the “inhibition (active/inactive call)” value [2] turn out when `N#CC1=C(N)SC(N)=C(C#N)C1c1ccco1` was run?
A: The value was “Active”.

Q: What about the inhibition [3] of the same compound?
A: The inhibition was “inactive”.

Q: What about the inhibition [6] of the same compound?
A: The inhibition was “inactive”.

Q: `COc1ccc(-c2nnc(S)n2-c2ccc(C)cc2)cc1` was tested. Which “inhibition (active/inactive call)” value [2] did it give?
A: The value was “Active”.

Q: What about the inhibition [3] of the same compound?
A: Its inhibition is “inactive”.

Q: And the pIC50 [1]?
A: The pIC50 was 5.62.

Q: How did the pIC50 [1] turn out when `N#CC1=C(N)SC(N)=C(C#N)C1CCc1ccccc1` was run?
A: The pIC50 was 5.43.

Q: With `CCOC(=O)Oc1cc2oc(=O)sc2cc1Cl` as the compound, how does the “inhibition (active/inactive call)” value [2] read?
A: Its value is “Active”.

Q: Which results are given for `COc1ccc(-c2c(C#N)c(S)nc3c2CCC3)cc1`?
A: inhibition (active/inactive call) [2]: Active; inhibition [3]: inactive; inhibition [6]: inactive

Q: `COc1nsc(I)c1C#N` was tested. Which “inhibition (active/inactive call)” value [2] did it give?
A: Its value is “Active”.

Q: And the inhibition [3]?
A: Its inhibition is “inactive”.

Q: `CC(C)C[C@@H](C=O)NC(=O)[C@H](CC(C)C)NC(=O)[C@H](CC(C)C)NC(=O)OCc1ccccc1` (Cbz-Leu-Leu-Leu-aldehyde) was tested. Which inhibition [7] did it give?
A: The inhibition was “Active”.
